Experimental findings from article PMC10671074, “Tumor Regression upon Intratumoral and Subcutaneous Dosing of the STING Agonist ALG-031048 in Mouse Efficacy Models” (International Journal of Molecular Sciences, 2023) are described below.

One series is described as follows: Plasma stability, mouse. Format: in vitro ADME. Particulars: 37 °C, read-out: Plasma t½, Mouse. The method, then: The plasma stability assay was carried out on 96-well microtiter plates. The test compounds at 5 µM and the reference compound (propantheline) at 1 µM final concentration were incubated separately at 37 °C with mouse or human plasma for 0, 30, 60, and 240 min. At the end of each incubation time point, 300 μL of the quenching solution (50% acetonitrile, 50% methanol, and 0.05% formic acid) containing the internal standard was added to each well. The incubation plates were sealed, vortexed, and centrifuged at 4 °C for 15 min at 4000 rpm. The supernatant was transferred to fresh plates for LC/MS/MS analysis of the test compounds. The peak area ratios of each test compound over the internal standard were plotted against incubation time, and the t½ was calculated from the curve assuming first-order kinetics.

The nature of series [1]: Liver microsomal stability, mouse. The series is classed as in vitro ADME. Particulars: pH 7.4, 0.5 mg/mL mouse liver microsomes, 37 °C, read-out: Liver Microsome t½, Mouse. As for the experimental part: The liver microsomal stability assay was carried out in 96-well microtiter plates. The test compounds at 5 µM and the reference compound (verapamil) at 1 µM final concentration were incubated separately at 37 °C with 0.5 mg/mL liver microsomes, with or without 1 mM NADPH in 100 mM potassium phosphate buffer, pH 7.4 with 3.3 mM MgCl2. […] At each of the time points (0, 15, 30, and 60 min), the enzymatic reaction was terminated with the addition of 150 μL of quenching solution (100% acetonitrile, 0.1% formic acid, and the internal standard), and subsequently the mixtures were vortexed vigorously for 20 min and centrifuged at 4000 rpm at 10 °C. The supernatants (80 µL) were transferred to a clean 96-well plate and analyzed via LC/MS/MS. The peak area ratios of each test compound over the internal standard were plotted against incubation time, and the t½ was calculated from the curve assuming first-order kinetics.
On the technique in general: Liver microsomes are a subcellular fraction often used to study metabolism.

In a further series the test system is primary human monocytes. The experiment in a line: Activation of primary human monocytes (CD83/CD86 flow cytometry). Format: cell-based. Particulars: Monocyte, 24 h after stimulation. An excerpt: Frozen human PBMCs (100 × 10^6 cells) were obtained from Stem Cell Technologies (Kent, WA, USA). Monocytes were purified from PBMCs using a CD14^+ pan-monocyte-negative isolation kit and an LS column (Miltenyi Biotec, Bergisch Gladbach, Germany). Magnetically labeled non-target cells were depleted by retaining them within a MACS column in the magnetic field of a MACS Separator, while highly purified unlabeled CD1 D16^− cells were collected and used to generate dendritic cells.
The cell suspension was then incubated with a predetermined optimal concentration of the appropriate fluorescent dye-labeled monoclonal antibodies (mAbs) against human cell surface markers on ice for 30 min. The fluorescent dye-labeled mAbs against human cell surface molecules included anti-CD209, anti-CD14, anti-CD11c, anti-CD40, anti-HLA-DR, anti-CD86, and anti-CD83 (BD Biosciences, Franklin Lakes, NJ, USA or BioLegend, San Diego, CA, USA). In addition, a fixable live/dead stain (Thermo Fisher Scientific) at a dilution of 1:1000 was added to exclude dead cells. After several washes with FACS buffer, cells were resuspended in FACS buffer and analyzed on an Attune Nxt flow cytometer (Thermo Fisher Scientific) with FlowJo v10 software (BD Biosciences). An aliquot of the cells to be analyzed served as controls by using “fluorescent minus-one” to establish gates and determine the frequency of positively stained cells. Ultra-comp beads (Thermo Fisher Scientific) were used as single-stained controls to set up compensation on the flow cytometer.
For orientation: Flow cytometry measures light scatter and fluorescence of single cells or particles in a stream.

The next series relates to plasma cytokines. The experiment in a line: Plasma cytokine analysis in CT26-tumor-bearing mice. Format: in vivo, mouse. The following applies: CT26-bearing BALB/c, one IT dose of 100 μg, 4 h after dosing. As for the experimental part:
Plasma levels of IFN-α, IFN-β, IL-2, TNF-α, IL-6, IL-12, IP-10, IFN-γ, and MCP-1 (in pg/mL) were measured using the ProcartaPlex 9-Plex (ThermoFisher Scientific) according to the manufacturer’s instructions. Data were processed using Milliplex Analyst software version 5.1 on a MAGPIX instrument (Luminex Corp., Austin, TX, USA).
Figure S5. Plasma cytokine levels in female BALB/c mice bearing SC CT26 tumors receiving one IT dose of 100 μg ADU‐S100 or ALG‐031048, at a mean TV of 116 mm3. Cytokine concentrations were analyzed 4 hours after dos ing. Only statistically significant differences (unpaired, parametric t test) are indicated by brackets.
(also on this page, place not known: pg/ml pg/ml pg/ml pg/ml pg/ml pg/ml pg/ml pg/ml pg/ml dosing.) […]
1 mg 4 mg Saline 25 g/kg S /kg SC
Figure S8. Cytokine induction in CT26 tumor‐bearing mice upon SC administration of ALG‐031048.
10 mice per group were treated with 3 doses 3 days apart. Plasma samples were collected 6 hours […]

Series [2] concerns EMT-6 murine mammary carcinoma. The experiment in a line: Re-challenge with EMT-6 of mice with complete CT26 tumor regression. Particulars: Figure 5D; previously 100 μg IT × 3; EMT-6 right flank. The series is classed as in vivo, mouse. The method, then:
Ten naïve, age-matched female BALB/c mice were used as controls. […] Tumor growth was measured as described above.

Like-named read-outs stand apart in the source and are kept apart here. Bounds are passed on as bounds.

The EC50 is the midpoint of the concentration-response curve. As to `CO[C@H]1[C@H]2OP(=O)(O)OC[C@@]34C[C@@H]3[C@@H](n3cnc5c(N)ncnc53)[C@H](O)[C@@H]4O[P@](=O)(S)OC[C@H]1O[C@H]2n1cnc2c(=O)[nH]c(N)nc21` [ALG-031048], the half-life at 5 µM in “Plasma stability, mouse” was greater than 1 h; in series [1], greater than 8 h. Further, the EC50 with primary human monocytes (read-out: EC50 CD83, Monocytes) worked out at 8.1 µM; with primary human monocytes (read-out: EC50 CD86, Monocytes), 1.12 µM. Moreover, the “Plasma cytokines after IT dosing” value in the series on plasma cytokines was “increased cytokines such as IFN-α and -β, TNF-α, interleukin 6 (IL-6), MCP-1, and IP-10”. For the same molecule, the “EMT-6 tumor growth after re-challenge” value in series [2] is “formed in these animals with kinetics comparable to those of naïve animals”.
